What all share (assay type): in vivo
In experiment [1] the test system is APP/PS1 mice. The experiment in a line: Aβ immunohistochemistry, Aβ burden in neocortex. The conditions noted are these: 5 mg/kg/day i.p. for 4 weeks, compared to vehicle-treated animals. The procedure: (§1) Animals and treatment: The experiments were carried out on male APP/PS1 mice, which express the human mutated forms APPswe and PS1dE9, and wild-type (WT) littermates which were 5 month-old at the beginning of the study. In the present work, identification of transgenic mice was carried out as follows: genomic DNA was isolated from 1-cm tail clips and genotyped by polymerase chain reaction (PCR) technique using the PCR conditions proposed by Jackson Laboratory. Animals were maintained under standard animal housing conditions in a normal 12-h dark-light cycle with free access to food and water. The sample size for experimentation was computed using the Power and Precision software (Biostat, Englewood, NJ, USA), assuming a power of 95% and no missing data. Animal procedures were conducted according to ethical guidelines (European Community Council Directive 86/609/EEC) and approved by the local ethical committee (UB-IDIBELL). The compounds (5 mg/kg) were dissolved in 1% DMSO and 99% saline, and were injected intraperitoneally (i.p.) in a volume of 10 mL/kg body weight. Animals were treated once daily for 4 weeks with (αS,7R,11R)-(Ia), (αS,7S,11S)-(Ia), (±)-(Ib), (±)-(Ic) or the corresponding vehicle (VEH) (wild-type, n = 6; APP/PS1, n = 6, each group). After 2 days of washing period, animals were subjected to behavioral evaluation.
Tissue Collection: At the end of the behavioral testing, the animals were sacrificed and their brains were removed. One brain hemisphere was dissected on ice, immediately frozen and stored at -80 °C until processing for protein or RNA quantification. The other brain hemisphere was fixed in 4% paraformaldehyde and processed for immunohistochemistry.
Aβ immunohistochemistry: Tissue samples were embedded in paraffin and coronal sections (4 µm) were cut with a microtome. […] No immunostaining was detected in these sections. […] The Aβ burden in neocortex was calculated as the percentage of the Aβ deposition area with respect to the total area in 9 representative pictures, corresponding to the main regions where Aβ deposition is observed in APP/PS1 mice. Sections from all the APP/PS1 animals were evaluated by using the Analysis tool of the software Adobe® Photoshop® CS4.
(§2) Densitometric quantification of glia around Aβ plaques: Astrocytic and microglial responses to Aβ deposition were evaluated by densitometric quantification of GFAP and Iba1 protein expression levels around Aβ plaques, respectively. […] Statistical analysis: Data were analyzed by two-way ANOVA with genotype and treatment or age as between factors, followed by Tukey's post hoc test when required. Aβ and glia quantifications were analyzed by one-way ANOVA followed by Tukey's post hoc test when required.

Experiment [2] deals with APP/PS1 mice. The experiment in a line: glial (GFAP) and Aβ double-immunofluorescence, astrocytes around Aβ plaques. The conditions noted are these: 5 mg/kg i.p. once daily for 4 weeks, FIG 3. The procedure:
as §1, with “The compounds (5 mg/kg) were dissolved in 1% DMSO and 99% saline, and were injected intraperitoneally (i.p.) in a volume of 10 mL/kg body weight. Animals were treated once daily for 4 weeks with (αS,7R,11R)-(Ia), (αS,7S,11S)-(Ia), (±)-(Ib), (±)-(Ic) or the corresponding vehicle (VEH) (wild-type, n = 6; APP/PS1, n = 6, each group). After 2 days of washing period, animals were subjected to behavioral evaluation.” left out
(§3) Tissue Collection: At the end of the behavioral testing, the animals were sacrificed and their brains were removed. One brain hemisphere was dissected on ice, immediately frozen and stored at -80 °C until processing for protein or RNA quantification. […]
(§4) Glial and Aβ double-immunofluorescence: De-waxed sections were stained with a saturated solution of Sudan black B (Merck) for 30 min to block the autofluorescence of lipofuscin granules present in cell bodies, then rinsed in 70% ethanol and washed in distilled water. […] After washing, the sections were incubated with Alexa488 or Alexa546 (1:400, Molecular Probes) fluorescence secondary antibodies against the corresponding host species. […]
Densitometric quantification of glia around Aβ plaques: Astrocytic and microglial responses to Aβ deposition were evaluated by densitometric quantification of GFAP and Iba1 protein expression levels around Aβ plaques, respectively. […] Statistical analysis: Data were analyzed by two-way ANOVA with genotype and treatment or age as between factors, followed by Tukey's post hoc test when required. […]

For experiment [3], the system named is APP/PS1 mice. The experiment in a line: two-object recognition test (V-maze), cognitive performance. As to conditions: male APP/PS1 mice, 5 month-old, 5 mg/kg i.p. once daily for 4 weeks, FIG 1; for memory impairment in the two-object recognition test: tested after 2 days of washing period, 5 mg/kg. The procedure:
as §1, with “The compounds (5 mg/kg) were dissolved in 1% DMSO and 99% saline, and were injected intraperitoneally (i.p.) in a volume of 10 mL/kg body weight. Animals were treated once daily for 4 weeks with (αS,7R,11R)-(Ia), (αS,7S,11S)-(Ia), (±)-(Ib), (±)-(Ic) or the corresponding vehicle (VEH) (wild-type, n = 6; APP/PS1, n = 6, each group). After 2 days of washing period, animals were subjected to behavioral evaluation.” left out
Behavioral evaluation of cognitive performance: The two-object recognition test was performed. […] On the second day, mice were placed for 9 min in the maze, where two identical objects were situated at the end of the arms, and the time that the mice spent exploring each object was recorded. […] The time that the animals spent exploring the two objects was recorded and an object recognition index was calculated as the difference between the time spent exploring the novel and the familiar object, divided by the total time spent exploring the two objects.
as §2

Experiment [4] deals with APP/PS1 mice. The experiment in a line: glial (Iba1) and Aβ double-immunofluorescence, microglia around Aβ plaques. As to conditions: 5 mg/kg i.p. once daily for 4 weeks, compared to vehicle-treated APP/PS1 animals, FIG 4. The procedure: Animals and treatment: The experiments were carried out on male APP/PS1 mice, which express the human mutated forms APPswe and PS1dE9, and wild-type (WT) littermates which were 5 month-old at the beginning of the study. In the present work, identification of transgenic mice was carried out as follows: genomic DNA was isolated from 1-cm tail clips and genotyped by polymerase chain reaction (PCR) technique using the PCR conditions proposed by Jackson Laboratory. Animals were maintained under standard animal housing conditions in a normal 12-h dark-light cycle with free access to food and water. […]
as §3, §4

“Also recorded” adds a separate entry of the source.

Take `CCC(C(=O)NCCCCCCCNc1c2c(nc3cc(Cl)ccc13)CCCC2)N1CCCC1=O` (racemic) [(±)-(Ib), (±)-N-{7-[(6-chloro-1,2,3,4-tetrahydroacridin-9-yl)amino]heptyl}-2-(2-oxopyrrolidin-1-yl)butanamide]: the “Aβ burden in the cortex” value in experiment [1] (FIG 2) was “tends to reduce”. The “number of astrocytes around Aβ plaques (GFAP/Aβ)” value (shortened to “number … (GFAP/Aβ)”) in experiment [2] is reported as “produced a tendency to reduce”.

As to `CCC(C(=O)NCCCCCCCNc1c2c(nc3ccccc13)CCCC2)N1CCCC1=O` (racemic) [(±)-(Ic), (±)-N-{7-[(1,2,3,4-tetrahydroacridin-9-yl)amino]heptyl}-2-(2-oxopyrrolidin-1-yl)butanamide], in experiment [3] (compared to vehicle-treated animals), the recognition index entry was “significantly increased”. Besides, the “memory impairment in the two-object recognition test” value in experiment [3] is on record as “did not exhibit memory impairment; also recorded: reverse the memory impairment”. In addition, the “Aβ burden in the cortex” value in experiment [1] (FIG 2) is “tends to reduce”.

As to `CC[C@@H](C(=O)NCCCCCCCNc1c2c(nc3cc(Cl)ccc13)C[C@@H]1C=C(C)C[C@H]2C1)N1CCCC1=O` [(αS,7R,11R)-(Ia), (+)-(αS,7R,11R)-N-{7-[(3-chloro-6,7,10,11-tetrahydro-9-methyl-7,11-methanocycloocta[b]quinolin-12-yl)amino]heptyl}-2-(2-oxopyrrolidin-1-yl)butanamide], the “Aβ burden in the cortex” value in experiment [1] (FIG 2) is reported as “tends to reduce”. The “number … (GFAP/Aβ)” value in experiment [2] is “produced a tendency to reduce”.

As to `CC[C@@H](C(=O)NCCCCCCCNc1c2c(nc3cc(Cl)ccc13)C[C@H]1C=C(C)C[C@@H]2C1)N1CCCC1=O` [(αS,7S,11S)-(Ia), (-)-(αS,7S,11S)-N-{7-[(3-chloro-6,7,10,11-tetrahydro-9-methyl-7,11-methanocycloocta[b]quinolin-12-yl)amino]heptyl}-2-(2-oxopyrrolidin-1-yl)butanamide], in experiment [3], the “memory impairment in the two-object recognition test” value was “did not exhibit memory impairment; also recorded: reverse the memory impairment”. The “Aβ burden in the cortex” value in experiment [1] (FIG 2, 5 mg/kg/day) is “tends to reduce; also recorded: reduction in the cortical Aβ plaques deposition”. For the same compound, the “number … (GFAP/Aβ)” value in experiment [2] is listed as “produced a tendency to reduce”. The “number of microglial cells associated with Aβ plaques (Iba1/Aβ)” value in experiment [4] is on record as “decreased microglial reaction”.

For the origin of these results see patent publication EP2818467A1, “Multi-target drug compounds for the treatment of neurodegenerative disorders” (Universitat de Barcelona, priority 2013, dated 2014).
